# What was measured:
# Type in all cases: functional, Homo sapiens
# Parameters in all cases: dose or concentration left out as unconfirmed
# Colon cancer organoid [1] = experiment: Identification of compartment-specific drug sensitivities in O06 CRC organoid-stroma F06 CAF co-cultures. Organoid is transduced with Lucferase2-P2A-EGFP lentivirus, fibroblast with Renilla-dsRed lentivirus. Dual-Glo Luciferase assay is used to report viability data.
# Colon cancer organoid [2] = experiment: Identification of compartment-specific drug sensitivities in O14 CRC organoid-stroma F14 CAF co-cultures. Organoid is transduced with Lucferase2-P2A-EGFP lentivirus, fibroblast with Renilla-dsRed lentivirus. Dual-Glo Luciferase assay is used to report viability data.
# Colon cancer organoid [3] = experiment: Identification of compartment-specific drug sensitivities in O20 CRC organoid-stroma F20 CAF co-cultures. Organoid is transduced with Lucferase2-P2A-EGFP lentivirus, fibroblast with Renilla-dsRed lentivirus. Dual-Glo Luciferase assay is used to report viability data.
# [4] = Transduced with Lucferase2-P2A-EGFP lentivirus
# [5] = Transduced with Renilla-dsRed lentivirus
SMILES,Cell Viability (Colon cancer organoid [1]; [4]) [%],Cell Viability (Colon cancer organoid [1]; [5]) [%],Cell Viability (Colon cancer organoid [2]; [4]) [%],Cell Viability (Colon cancer organoid [2]; [5]) [%],Cell Viability (Colon cancer organoid [3]; [4]) [%],Cell Viability (Colon cancer organoid [3]; [5]) [%]
CN1CCN(Cc2ccc(Nc3ncc(Cl)c(Nc4ccccc4S(=O)(=O)N(C)C)n3)cc2)CC1 [DUBERMATINIB],0.5937,0.7151,1,1.414,1.051,16.1981
Cn1cc(C2=C(c3cn(C4CCN(Cc5ccccn5)CC4)c4ccccc34)C(=O)NC2=O)c2ccccc21 [ENZASTAURIN],65.6638,92.7001,80.1065,85.9175,54.6044,78.6109
C[C@H](NC(=O)Nc1cc2[nH]ncc2c(CO)n1)c1ccccn1 [ERKi-NC],94.8975,86.1568,81.1185,100.943,108.541,124.126
C[C@@H](NC(=O)Nc1cc2[nH]ncc2c(CO)n1)c1ccccc1 [ERKi],82.7933,113.572,56.1161,76.4372,50.0756,135.339
O=C(Nc1nc2cccc(-c3ccc(CN4CCS(=O)(=O)CC4)cc3)n2n1)C1CC1 [FILGOTINIB],100.525,92.8016,113.804,94.0881,113.419,86.0918
CN(C(=O)c1ccccc1)c1cc(N(C)c2ccc3c(c2)CCc2ccc(C(=O)NCCN4CCOCC4)cc2C3=O)ccc1F [FM-743],67.0526,69.6878,122.056,99.7372,87.6379,153.202
O=C(NCCN1CCOCC1)c1ccc2c(c1)C(=O)c1ccc(Nc3ccc(F)c(NC(=O)c4ccccc4)c3)cc1CC2 [FS-694],67.8661,67.282,121.73,92.4198,66.3241,119.038
CC(C)(C)OC(=O)N1CCCC1CNC1CCC(c2cc(F)ccc2F)(S(=O)(=O)c2ccc(Cl)cc2)CC1 (stereo not given) [GSI-NC],96.8575,78.4593,112.017,95.5535,93.8933,100.789
CC(=O)Nc1c(F)cc(C(=O)N[C@H]2CC[C@H](O)CC2)cc1O[C@@H](C)c1ccccc1 [GSK046],141.493,157.689,96.2623,124.481,118.485,118.66
CNC(=O)c1cc(C(=O)NC2CC2)cn(Cc2ccccc2)c1=O [GSK620],111.223,132.009,84.0371,91.229,93.0444,100.747
COCc1nc2cnc3cc(-c4c(C)noc4C)c(OC[C@H]4CCNC4)cc3c2n1[C@H](C)c1ccccc1 [GSK778],81.063,183.714,41.3417,133.991,27.6505,143.906
Cc1cc2c(-c3ccco3)cnc(N[C@@H]3CCN(C)C[C@H]3C(=O)NC3CCCCC3)c2[nH]c1=O [GSK789],76.5976,134.369,52.4382,127.289,34.1492,125.83
Cc1cc2c(-c3ccco3)cnc(N[C@H]3CCN(C)C[C@@H]3C(=O)NC3CCCCC3)c2[nH]c1=O [GSK791],113.813,153.556,100.549,110.493,101.663,116.18
CNC(=O)c1cc(C(=O)N[C@H]2[C@@H]3COC[C@@H]32)cc2c1O[C@@H](CF)[C@@H]2c1ccccc1 [GSK943],83.6271,130.888,96.5907,102.587,107.286,108.354
CNC(=O)c1cc(C(=O)N[C@H]2[C@@H]3COC[C@@H]32)cc2c1O[C@H](CF)[C@H]2c1ccccc1 [GSK973],110.942,170.924,99.5313,122.198,97.9061,135.509

# — ChEMBL document CHEMBL5608141, “Identification of compartment-specific drug sensitivities in CRC organoid-stroma co-cultures” (2024)
